Data set [1] in a line: Anatomic pathology (heart and kidney histopathology) in mice. In kind it is in vivo, CD-1 mice. The note with it: 20 mg/kg intravenously daily for 9 days, microscopic histopathology on day 10. How it is done: 20-day-old CD-1 mice were divided into a vehicle control group (5 mice) and a treatment group (5 mice). Samples of glycopeptide antibiotics were administered at 20 mg/kg intravenously daily for 9 days.
Samples of tissues from necropsied mice were formalin-fixed, paraffin-embedded, sectioned, stained with hematoxylin and eosin, and examined microscopically. Histopathologic findings were recorded. These findings were subjectively graded on a scale corresponding to slight, mild, moderate, marked and severe as compared to untreated controls.

The test system of another data set is Streptococcus sp. In words: In vitro antibacterial evaluation: minimum inhibitory concentration (MIC), broth dilution method. In kind it is cell-based. The procedure, abridged:
(§1)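 An MIC is reported for each organism as the least concentration giving inhibition, using broth dilution over 64-0.06 μg/mL with a 5×10^5 CFU/mL inoculum.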
A general note: Dilution methods test growth across graded concentrations, often in twofold steps.

Data set [2] relates to Staphylococcus aureus-SMITH (GC 4543). The data set can be described thus: Acute lethal infection in mice (ED50). In kind it is in vivo. The note with it: female CD-1 mice, intraperitoneal challenge, intravenous dose 30 min. after infection, 7 day survival ratios. The procedure, abridged:
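Groups of five female CD-1 mice per dose got intravenous antibiotic in saline or 5% dextrose half an hour after intraperitoneal infection sufficient to kill controls within 24-48 hr. Seven-day survival data from three experiments were combined to derive ED50.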

For the next data set, the system named is Escherichia coli. In words: In vitro antibacterial evaluation: minimum inhibitory concentration (MIC), broth dilution method. In kind it is cell-based. The note with it: strain GC 4560. The procedure, abridged: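 Inoculum: 5×10^5 CFU/mL. Range: 64-0.06 μg/mL. Medium: Muller-Hinton II […]; NCCLS M7-A2 broth dilution. Endpoint: lowest concentration inhibiting growth. Strains include methicillin-, penicillin- and/or vancomycin-resistant clinical isolates.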

The test system of the next data set is Enterococcus sp. The description is as above. In kind it is cell-based. The note with it: for MIC Enterococcus avium (GC 4558): strain GC 4558. The procedure, abridged: as §1
Setting [3] is: Streptococcus pneumoniae (GC 1894), broth dilution, 18 hours at 35° C.
Where [4] appears, read: Streptococcus pneumoniae (GC 4565), broth dilution, 18 hours at 35° C.

≈ marks a conversion by molar mass, not a printed value. Where only a bound is given, the exact number is not on record here.

As to `CC(c1ccccc1)C1NC(=O)CNC(=O)C(CO)NC(=O)C(C(O)C2CN(Cc3ccccc3)C(=N)N2C2OC(CO)C(O)C(O)C2O)NC(=O)C(C(O)C2CNC(=N)N2)NC(=O)C(Cc2ccc(OC3OC(CO)C(OC4OC(CO)C(O)C(O)C4O)C(O)C3O)cc2)NC1=O` (stereo not drawn) [Example 59, Cyclo[glycyl-β-methylphenylalanyl-O-(4-O-hexopyranosylhexopyranosyl)tyrosyl-(2-iminoimidazolidin-4-yl)seryl-3-[1-benzyl-3-hexopyranosyl-2-iminoimidazolidin-4-yl]serylseryl]], in data set [1], the “Anatomical Pathology (Day 10), Heart” value is 0 and the “Anatomical Pathology (Day 10), Kidney” value is given as 0. For the same compound, in the data set with Streptococcus sp. (setting [3]), the “MIC Streptococcus pneumoniae (GC 1894)” value came to 64 µg/mL (≈ 46.2 µM). Moreover, the “MIC Streptococcus pneumoniae (GC 1894)” value with Streptococcus sp. (strain GC 1894) turned out to be 64 µg/mL (≈ 46.2 µM). Moreover, the “median effective dose (ED50), Staphylococcus aureus-SMITH (GC 4543)” value (from here on “median effective dose (ED50)”) in data set [2] was over 8.

Regarding `CC(c1ccccc1)C1NC(=O)CNC(=O)C(CO)NC(=O)C(C(O)C2CN(Cc3ccc(-c4ccccc4)cc3)C(=N)N2C2OC(CO)C(O)C(O)C2O)NC(=O)C(C(O)C2CNC(=N)N2)NC(=O)C(Cc2ccc(OC3OC(CO)C(OC4OC(CO)C(O)C(O)C4O)C(O)C3O)cc2)NC1=O` (stereo not shown) [Example 66a], in data set [1], the “Anatomical Pathology (Day 10), Heart” value amounted to 0 and the “Anatomical Pathology (Day 10), Kidney” value is listed as “++”. Also, in the data set with Escherichia coli, the “MIC Escherichia coli (GC 4560)” value amounted to 8 µg/mL (≈ 5.47 µM). Besides, the “median effective dose (ED50)” value in data set [2] was over 4.

With `CC(c1ccccc1)C1NC(=O)CNC(=O)C(CO)NC(=O)C(C(O)C2CN(Cc3ccccc3-c3ccccc3)C(=N)N2C2OC(CO)C(O)C(O)C2O)NC(=O)C(C(O)C2CNC(=N)N2)NC(=O)C(Cc2ccc(OC3OC(CO)C(OC4OC(CO)C(O)C(O)C4O)C(O)C3O)cc2)NC1=O` (stereo not shown) [Example 65], in data set [1], the “Anatomical Pathology (Day 10), Heart” value came out at 0 and the “Anatomical Pathology (Day 10), Kidney” value is “+++”. Moreover, in the data set on Escherichia coli, the “MIC Escherichia coli (GC 4560)” value was 32 µg/mL (≈ 21.9 µM). The “median effective dose (ED50)” value in data set [2] is given as over 8.

Turning to `CC(c1ccccc1)C1NC(=O)CNC(=O)C(CO)NC(=O)C(C(O)C2CN(CCCCCCCCCCC(=O)O)C(=N)N2C2OC(CO)C(O)C(O)C2O)NC(=O)C(C(O)C2CNC(=N)N2)NC(=O)C(Cc2ccc(OC3OC(CO)C(OC4OC(CO)C(O)C(O)C4O)C(O)C3O)cc2)NC1=O` (stereo not drawn) [Example 72, Cyclo[glycyl-β-methylphenylalanyl-O-(4-O-hexopyranosylhexopyranosyl)tyrosyl-3-(2-iminoimidazolidin-4-yl)seryl-3-[1-(10-carboxydecyl)-3-hexopyranosyl-2-iminoimidazolidin-4-yl]serylseryl]], the “Anatomical Pathology (Day 10), Heart” value in data set [1] is on record as 0. In data set [1], the “Anatomical Pathology (Day 10), Kidney” value was “++”. Further, the “MIC Streptococcus pneumoniae (ATCC 6301)” value in the data set on Streptococcus sp. (Streptococcus pneumoniae (ATCC 6301), broth dilution, 18 hours at 35° C.) worked out at 64 µg/mL (≈ 43.3 µM); in the data set with Streptococcus sp. (strain ATCC 6301), 64 µg/mL (≈ 43.3 µM). The “MIC Streptococcus pneumoniae (GC 1894)” value against Streptococcus sp. (setting [3]) and in the data set with Streptococcus sp. (strain GC 1894) was 16 µg/mL (≈ 10.8 µM) throughout. Further, the “MIC Streptococcus pneumoniae (GC 4565)” value with Streptococcus sp. (setting [4]) and against Streptococcus sp. (strain GC 4565) was 64 µg/mL (≈ 43.3 µM) in each case. The “MIC Streptococcus pyogenes (GC 4563)” value with Streptococcus sp. (Streptococcus pyogenes (GC 4563), broth dilution, 18 hours at 35° C.) is 64 µg/mL (≈ 43.3 µM); against Streptococcus sp. (strain GC 4563), 64 µg/mL (≈ 43.3 µM). The “MIC Enterococcus faecalis (GC 4553)” value with Enterococcus sp. (strain GC 4553) was determined as 64 µg/mL (≈ 43.3 µM). In addition, the “MIC Enterococcus avium (GC 4558)” value in the data set with Enterococcus sp. was 64 µg/mL (≈ 43.3 µM). Moreover, the “MIC Escherichia coli (GC 4560)” value in the data set with Escherichia coli amounted to 32 µg/mL (≈ 21.6 µM). Further, in data set [2], the “median effective dose (ED50)” value is given as over 8.

Consider `CC(c1ccccc1)C1NC(=O)CNC(=O)C(CO)NC(=O)C(C(O)C2CN(Cc3ccc4ccccc4c3)C(=N)N2C2OC(CO)C(O)C(O)C2O)NC(=O)C(C(O)C2CNC(=N)N2)NC(=O)C(Cc2ccc(OC3OC(CO)C(OC4OC(CO)C(O)C(O)C4O)C(O)C3O)cc2)NC1=O` (stereo not shown) [Example 67], for which, in data set [1], the “Anatomical Pathology (Day 10), Heart” value is 0 and the “Anatomical Pathology (Day 10), Kidney” value is 0. Further, the “MIC Streptococcus pneumoniae (GC 1894)” value with Streptococcus sp. (setting [3]) was determined as 64 µg/mL (≈ 44.6 µM). In addition, the “MIC Streptococcus pneumoniae (GC 1894)” value against Streptococcus sp. (strain GC 1894) is 64 µg/mL (≈ 44.6 µM). Also, the “MIC Enterococcus avium (GC 4558)” value against Enterococcus sp. is 64 µg/mL (≈ 44.6 µM). In addition, the “MIC Escherichia coli (GC 4560)” value with Escherichia coli was 32 µg/mL (≈ 22.3 µM). For the same compound, in data set [2], the “median effective dose (ED50)” value is recorded as over 8.

For the compound `CC(c1ccccc1)C1NC(=O)CNC(=O)C(CO)NC(=O)C(C(O)C2CN(CCCCCCCCCCCCO)C(=N)N2C2OC(CO)C(O)C(O)C2O)NC(=O)C(C(O)C2CNC(=N)N2)NC(=O)C(Cc2ccc(OC3OC(CO)C(OC4OC(CO)C(O)C(O)C4O)C(O)C3O)cc2)NC1=O` (stereo not shown) [Example 61], the “Anatomical Pathology (Day 10), Heart” value in data set [1] worked out at 0. Besides, in data set [1], the “Anatomical Pathology (Day 10), Kidney” value is listed as “+++”. Besides, the “MIC Streptococcus pneumoniae (GC 1894)” value in the data set on Streptococcus sp. (setting [3]) and in the data set on Streptococcus sp. (strain GC 1894) was 64 µg/mL (≈ 43.3 µM) each time. The “MIC Streptococcus pneumoniae (GC 4565)” value against Streptococcus sp. (setting [4]) and against Streptococcus sp. (strain GC 4565) was 64 µg/mL (≈ 43.3 µM) in each case. Further, in the data set on Enterococcus sp., the “MIC Enterococcus avium (GC 4558)” value is 64 µg/mL (≈ 43.3 µM). Moreover, the “MIC Escherichia coli (GC 4560)” value in the data set on Escherichia coli was 8 µg/mL (≈ 5.41 µM). Besides, the “median effective dose (ED50)” value in data set [2] is recorded as over 8.

With `CC(c1ccccc1)C1NC(=O)CNC(=O)C(CO)NC(=O)C(C(O)C2CN(Cc3ccc(C(C)(C)C)cc3)C(=N)N2C2OC(CO)C(O)C(O)C2O)NC(=O)C(C(O)C2CNC(=N)N2)NC(=O)C(Cc2ccc(OC3OC(CO)C(OC4OC(CO)C(O)C(O)C4O)C(O)C3O)cc2)NC1=O` (stereo not drawn) [Example 60, Cyclo[glycyl-β-methylphenylalanyl-O-(4-O-hexopyranosylhexopyranosyl)tyrosyl-(2-iminoimidazolidin-4-yl)seryl-3-[1-(4-tert-butylbenzyl)-3-hexopyranosyl-2-iminoimidazolidin-4-yl]-serylseryl]], in data set [1], the “Anatomical Pathology (Day 10), Heart” value amounted to 0 and the “Anatomical Pathology (Day 10), Kidney” value amounted to 0. The “MIC Streptococcus pneumoniae (GC 1894)” value in the data set on Streptococcus sp. (setting [3]) turned out to be 64 µg/mL (≈ 44.4 µM). Also, in the data set with Streptococcus sp. (strain GC 1894), the “MIC Streptococcus pneumoniae (GC 1894)” value is 64 µg/mL (≈ 44.4 µM). For the same compound, the “MIC Escherichia coli (GC 4560)” value in the data set on Escherichia coli was 16 µg/mL (≈ 11.1 µM). In addition, the “median effective dose (ED50)” value in data set [2] is on record as over 8.

For the origin of these results see patent US8247211B2, “Glycopeptide antibiotics” (American Cyanamid Company, priority 2001, dated 2012).
